In data set [1] the target is Neurotensin receptor type 1 (Homo sapiens, UniProt P30989). The data set is described as follows: Agonist activity at NTR1 (unknown origin) expressed in CHOK1 cells by beta-arrestin assay relative to neurotensin (8 to 13). The class given is cell-based. To be noted: CHO-K1.
A short description of data set [2]: Kinetic solubility of the compound in pION buffer at 250 uM after 18 hrs at pH 6.2. The class given is physicochemical. To be noted: read-out: Kinetic_solubility.
Data set [3] concerns the target T1, 5-hydroxytryptamine receptor 3A (Homo sapiens, UniProt P46098).
T1 sequence (P46098 whole entry): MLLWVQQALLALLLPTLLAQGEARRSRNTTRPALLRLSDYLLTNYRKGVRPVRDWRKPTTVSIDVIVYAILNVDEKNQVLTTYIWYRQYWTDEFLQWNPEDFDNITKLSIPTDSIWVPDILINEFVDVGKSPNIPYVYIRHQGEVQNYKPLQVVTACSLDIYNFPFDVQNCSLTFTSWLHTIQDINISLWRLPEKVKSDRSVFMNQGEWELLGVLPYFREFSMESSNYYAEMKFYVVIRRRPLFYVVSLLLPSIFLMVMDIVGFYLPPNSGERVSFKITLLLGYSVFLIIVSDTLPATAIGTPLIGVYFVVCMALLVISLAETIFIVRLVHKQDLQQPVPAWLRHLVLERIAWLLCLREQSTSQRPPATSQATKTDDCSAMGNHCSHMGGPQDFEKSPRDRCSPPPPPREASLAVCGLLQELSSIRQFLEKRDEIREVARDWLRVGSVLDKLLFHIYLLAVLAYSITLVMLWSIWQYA
The data set is described as follows: Binding affinity to 5-HT3 receptor (unknown origin).

For data set [4], the system named is Liver microsomes. The data set is described as follows: Metabolic stability in human liver microsomes assessed as compound remaining at 1 to 10 uM after 1 hr by LC-MS/MS analysis. In kind it is ADME, Microsome.
The target in data set [5] is Mu-type opioid receptor (Homo sapiens, UniProt P35372). Briefly: Binding affinity to mu opioid receptor (unknown origin) at 10 uM relative to control.
Sequence of Mu-type opioid receptor (P35372 whole entry): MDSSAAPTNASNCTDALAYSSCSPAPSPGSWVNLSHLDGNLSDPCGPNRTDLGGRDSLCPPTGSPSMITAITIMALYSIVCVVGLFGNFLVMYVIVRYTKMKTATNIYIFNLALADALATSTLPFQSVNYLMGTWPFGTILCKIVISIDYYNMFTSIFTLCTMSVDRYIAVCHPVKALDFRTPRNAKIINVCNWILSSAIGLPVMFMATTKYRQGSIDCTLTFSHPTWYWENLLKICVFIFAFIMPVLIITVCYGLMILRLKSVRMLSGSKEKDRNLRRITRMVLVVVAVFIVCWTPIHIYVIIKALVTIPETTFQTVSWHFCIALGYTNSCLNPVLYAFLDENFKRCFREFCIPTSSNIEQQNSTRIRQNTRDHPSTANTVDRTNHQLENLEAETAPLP
Data set [6] concerns Mus musculus. Briefly: Hepatic clearance in C57BL/6J mouse at 2 mg/kg, iv by LC-MS/MS analysis. Further details: dose 2 mg/kg, route intravenous. Particulars: in vivo. The class given is ADME, organism-based, Liver.
The target in data set [7] is T2, Alpha-1A adrenergic receptor (Homo sapiens) (UniProt P35348).
T2 sequence (whole entry): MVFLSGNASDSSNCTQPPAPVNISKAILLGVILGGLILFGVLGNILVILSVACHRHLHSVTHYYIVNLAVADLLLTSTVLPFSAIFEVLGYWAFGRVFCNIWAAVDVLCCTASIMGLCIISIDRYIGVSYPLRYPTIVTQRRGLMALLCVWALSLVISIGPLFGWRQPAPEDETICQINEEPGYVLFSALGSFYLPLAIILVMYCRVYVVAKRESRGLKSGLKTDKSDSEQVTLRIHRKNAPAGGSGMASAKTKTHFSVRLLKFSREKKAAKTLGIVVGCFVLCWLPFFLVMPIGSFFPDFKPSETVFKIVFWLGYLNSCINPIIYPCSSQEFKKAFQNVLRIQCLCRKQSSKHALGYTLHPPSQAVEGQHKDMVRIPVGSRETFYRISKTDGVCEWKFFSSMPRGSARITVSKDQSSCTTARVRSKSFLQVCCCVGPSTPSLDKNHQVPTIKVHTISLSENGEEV
The data set is described as follows: Binding affinity to adrenergic alpha1A receptor (unknown origin) at 10 uM relative to control.

A short description of data set [8]: Kinetic solubility of the compound in pION buffer at 250 uM after 18 hrs at pH 5. The class given is physicochemical. Particulars: read-out: Kinetic_solubility.
The target of data set [9] is Neurotensin receptor type 2 (Homo sapiens, UniProt O95665). Briefly: Agonist activity at NTR2 (unknown origin) expressed in human U2OS cells coexpressing beta-arrestin by GFP reporter gene assay. In kind it is cell-based. A general note: Reporter assays use an easily measured gene product as a stand-in for the process of interest.
Sequence of Neurotensin receptor type 2 (O95665 whole entry): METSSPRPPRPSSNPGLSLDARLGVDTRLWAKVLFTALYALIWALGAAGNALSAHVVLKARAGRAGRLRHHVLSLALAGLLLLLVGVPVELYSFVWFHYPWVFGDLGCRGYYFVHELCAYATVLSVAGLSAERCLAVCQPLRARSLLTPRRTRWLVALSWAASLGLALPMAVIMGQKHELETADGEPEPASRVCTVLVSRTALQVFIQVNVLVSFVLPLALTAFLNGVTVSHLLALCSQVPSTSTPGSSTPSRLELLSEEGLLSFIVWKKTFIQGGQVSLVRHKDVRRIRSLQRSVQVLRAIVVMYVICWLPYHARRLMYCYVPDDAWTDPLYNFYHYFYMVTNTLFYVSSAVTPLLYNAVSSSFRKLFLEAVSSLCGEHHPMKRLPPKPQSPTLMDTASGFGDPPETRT
For data set [10], the system named is Plasma. Briefly: Plasma protein binding in human at 1 uM after 4 hrs by LC-MS/MS analysis. In kind it is ADME, cell-free.
Data set [11] concerns Plasma. The data set is described as follows: Plasma protein binding in mouse at 1 uM after 4 hrs by LC-MS/MS analysis. The class given is ADME, cell-free.
Data set [12] concerns Hepatitis C virus. The data set is described as follows: Antiviral activity against Hepatitis C virus assessed as growth inhibition. The class given is functional, Hepacivirus hominis.

In brackets after ≈: the same amount, converted by molar mass.

Sequence of Neurotensin receptor type 1 (P30989 whole entry): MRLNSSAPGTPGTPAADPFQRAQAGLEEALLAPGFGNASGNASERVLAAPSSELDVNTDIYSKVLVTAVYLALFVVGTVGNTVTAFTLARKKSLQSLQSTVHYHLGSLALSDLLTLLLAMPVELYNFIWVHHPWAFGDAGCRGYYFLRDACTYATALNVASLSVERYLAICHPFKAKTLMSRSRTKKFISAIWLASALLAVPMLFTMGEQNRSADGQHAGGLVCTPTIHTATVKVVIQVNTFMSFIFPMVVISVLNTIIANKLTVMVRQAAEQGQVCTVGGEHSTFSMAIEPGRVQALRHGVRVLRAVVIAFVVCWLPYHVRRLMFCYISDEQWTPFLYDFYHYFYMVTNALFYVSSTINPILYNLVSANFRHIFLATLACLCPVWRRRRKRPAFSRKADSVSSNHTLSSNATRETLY

In general, Emax refers to the maximal effect, on the per cent scale that the assay sets. The Ki is the dissociation constant of the complex between target and ligand, obtained from inhibition or displacement. What is called EC50 is the concentration that produces a half-maximal response. A low value points to an effect from little substance. For the molecule `COc1cc2nc(C3CC3)nc(N3CCN(c4ccccc4OC)CC3)c2cc1OC`, in data set [1], the maximum response (Emax) is 86.6%. For the same molecule, the results for the solubility kinetic at 18 h, 250 µM in [2] and in [8] were 21.4 µM (≈ 9 µg/mL) and over 297 µM, respectively. Affinity in data set [3] was put at a Ki of 1 µM. For the same molecule, the Stability in [4] amounted to 1.4%. For the same molecule, the Activity is 86% in data set [5] and 63% in data set [7]. This molecule registered a CLH in data set [6] of 81 mL/min/kg. The molecule also showed an EC50 in data set [9] of over 80 µM. The PPB in data set [10] turned out to be 99.5%; in [11], 99.7%. Besides, the GI in data set [12] is 3.16 µM.

Values taken from ChEMBL document CHEMBL2429761, “Discovery of ML314, a Brain Penetrant Non-Peptidic β-Arrestin Biased Agonist of the Neurotensin NTR1 Receptor” (ACS Med Chem Lett, 2013).
